Measurements from the NIST ThermoML archive (doi:10.1016/j.jct.2007.05.016).
“And” between values parts separate entries of the source, which are not always exact repeats. Identical values can stand only once. Numbers after ± are expanded uncertainties.

What was measured:
[1] = 101 kPa, Liquid; for speed of sound: Sing-around technique in a fixed-path interferometer
[2] = xn = mol fraction of the nth substance listed; details: 101 kPa, Liquid, x1 = 1; for speed of sound: Sing-around technique in a fixed-path interferometer

Compound	mass density ([1]; 298.15 K) [kg/m3]	viscosity ([1]; 298.15 K) [mPa·s]	speed of sound ([1]; 298.15 K)	mass density ([1]; 303.15 K) [kg/m3]	speed of sound ([1]; 303.15 K) [m/s]	mass density ([1]; 308.15 K) [kg/m3]	speed of sound ([1]; 308.15 K) [m/s]	speed of sound ([2]; 298.15 K) [m/s]	mass density ([2]; 298.15 K) [kg/m3]	viscosity ([2]; 298.15 K) [mPa·s]	speed of sound ([2]; 303.15 K) [m/s]	mass density ([2]; 303.15 K) [kg/m3]	speed of sound ([2]; 308.15 K) [m/s]	mass density ([2]; 308.15 K) [kg/m3]
CCCCO [butan-1-ol]	805.907 ± 0.77	2.573 ± 0.032	1240.5 ± 1.2 m/s and 1240.4 ± 1.2 m/s	803.155 ± 0.78	1226.5 ± 1.2	799.249 ± 0.78	1209.8 ± 1.2							
CCCCO [butan-1-ol] + CCCCCC								1240.5 ± 1.2	805.907 ± 0.77	2.573 ± 0.032	1226.5 ± 1.2	803.155 ± 0.78	1209.8 ± 1.2	799.249 ± 0.78
CCCCO [butan-1-ol] + CCCCCCCC								1240.4 ± 1.2	805.907 ± 0.77	2.573 ± 0.032	1226.5 ± 1.2	803.155 ± 0.78	1209.8 ± 1.2	799.249 ± 0.78
CCCCO [butan-1-ol] + CCCCCCCCCC								1240.5 ± 1.2	805.907 ± 0.77	2.573 ± 0.032	1226.5 ± 1.2	803.155 ± 0.78	1209.8 ± 1.2	799.249 ± 0.78
CCCCCCCCCC [decane]	726.806 ± 0.93	0.852 ± 0.012	1234.8 ± 1.2 m/s	723.042 ± 0.94	1215.2 ± 1.2	719.23 ± 0.95	1195.6 ± 1.2							
CCCCCC [hexane]	655.072 ± 1.1	0.313 ± 0.008	1077.8 ± 1.2 m/s	650.369 ± 1.1	1055.2 ± 1.1	645.767 ± 1.1	1032.9 ± 1.1							
CCCCCCCC [octane]	698.58 ± 0.99	0.518 ± 0.009	1172.7 ± 1.2 m/s	694.497 ± 1	1152.1 ± 1.2	690.416 ± 1	1131.7 ± 1.2							
